Data on 9 compounds can be found in ChEMBL document CHEMBL5346973 (J Med Chem, 2023).

Experiment [1] addresses Nicotinic acetylcholine receptor alpha9/alpha10 (Rattus norvegicus, UniProt P43144+Q9JLB5). The experiment in a line: Antagonist activity at rat alpha9alpha10 nACh receptor expressed in Xenopus oocyte assessed as inhibition of acetylcholine-induced response at -70 mV holding potential by voltage-clamp based electrophysiological assay. Type of experiment: cell-based.
Experiment [2] has as its target Neuronal acetylcholine receptor subunit alpha-7 (Rattus norvegicus, UniProt Q05941). As to the kind of experiment: Antagonist activity at rat alpha7 nACh receptor expressed in Xenopus oocyte assessed as inhibition of acetylcholine-induced response at -70 mV holding potential by voltage-clamp based electrophysiological assay. Type of experiment: cell-based.

Where a SMILES comes first, the peptide text is derived from it.

Nicotinic acetylcholine receptor alpha9/alpha10, sequence (P43144 whole entry): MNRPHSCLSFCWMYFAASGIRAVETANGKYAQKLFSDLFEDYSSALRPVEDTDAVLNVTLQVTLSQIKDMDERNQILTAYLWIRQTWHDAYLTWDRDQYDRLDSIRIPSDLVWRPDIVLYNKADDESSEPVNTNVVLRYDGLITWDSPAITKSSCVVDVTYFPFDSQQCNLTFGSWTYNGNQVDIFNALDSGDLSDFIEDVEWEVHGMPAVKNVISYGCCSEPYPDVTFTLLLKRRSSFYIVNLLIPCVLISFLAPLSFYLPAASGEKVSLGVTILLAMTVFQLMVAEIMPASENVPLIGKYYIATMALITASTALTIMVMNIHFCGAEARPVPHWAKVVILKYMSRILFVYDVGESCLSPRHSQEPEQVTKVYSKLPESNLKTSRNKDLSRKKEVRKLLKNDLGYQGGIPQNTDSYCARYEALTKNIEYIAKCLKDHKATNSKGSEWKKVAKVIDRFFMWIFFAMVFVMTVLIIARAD
Nicotinic acetylcholine receptor alpha9/alpha10, sequence (Q9JLB5 whole entry): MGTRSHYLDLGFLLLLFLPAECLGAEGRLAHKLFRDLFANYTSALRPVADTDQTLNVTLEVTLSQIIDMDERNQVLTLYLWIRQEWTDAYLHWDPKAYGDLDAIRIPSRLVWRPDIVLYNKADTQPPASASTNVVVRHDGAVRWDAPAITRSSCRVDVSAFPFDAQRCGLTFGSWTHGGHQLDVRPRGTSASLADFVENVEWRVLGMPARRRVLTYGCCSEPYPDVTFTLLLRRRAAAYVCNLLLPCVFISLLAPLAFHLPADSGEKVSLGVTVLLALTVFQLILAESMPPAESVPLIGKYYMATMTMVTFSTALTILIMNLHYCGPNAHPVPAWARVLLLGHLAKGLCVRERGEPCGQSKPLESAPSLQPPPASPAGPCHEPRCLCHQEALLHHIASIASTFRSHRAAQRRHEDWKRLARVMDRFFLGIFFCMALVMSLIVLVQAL
Neuronal acetylcholine receptor subunit alpha-7, sequence (Q05941 whole entry): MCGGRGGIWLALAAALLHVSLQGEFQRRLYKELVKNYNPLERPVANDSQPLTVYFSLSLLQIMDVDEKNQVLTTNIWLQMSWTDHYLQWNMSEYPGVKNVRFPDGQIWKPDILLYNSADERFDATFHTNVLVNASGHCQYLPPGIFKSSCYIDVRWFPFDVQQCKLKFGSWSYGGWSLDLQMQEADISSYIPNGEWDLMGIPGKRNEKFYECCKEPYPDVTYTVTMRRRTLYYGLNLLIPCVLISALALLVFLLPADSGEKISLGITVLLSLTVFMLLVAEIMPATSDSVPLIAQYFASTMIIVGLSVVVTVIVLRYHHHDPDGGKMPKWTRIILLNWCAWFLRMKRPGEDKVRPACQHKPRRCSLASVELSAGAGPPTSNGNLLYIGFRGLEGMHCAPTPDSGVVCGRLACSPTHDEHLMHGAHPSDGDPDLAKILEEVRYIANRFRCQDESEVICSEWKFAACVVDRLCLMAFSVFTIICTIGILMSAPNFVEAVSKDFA

On to `CC[C@H](C)[C@@H]1NC(=O)[C@H](CCCNC(=N)N)NC(=O)[C@H](CCCNC(=N)N)NC(=O)[C@@H]2CSSC[C@H](NC(=O)[C@H](Cc3ccc(O)cc3)NC(=O)[C@H](CCCNC(=N)N)NC(=O)CNC(=O)[C@H](CO)NC(=O)[C@H](CO)NC(=O)[C@H](CCCNC(=N)N)NC(=O)[C@@H](NC(=O)[C@@H](N)[C@@H](C)O)CSSC[C@@H](C(=O)N[C@H](C(=O)O)C(C)C)NC(=O)[C@H](C)NC(=O)[C@H](CC(=O)O)NC(=O)[C@H]([C@@H](C)O)NC1=O)C(=O)N[C@@H](C)C(=O)N[C@@H](CO)C(=O)N1CCC[C@H]1C(=O)N[C@@H](Cc1ccc(O)cc1)C(=O)N[C@@H](CC(=O)O)C(=O)N[C@@H](CCCNC(=N)N)C(=O)N[C@@H](CCCNC(=N)N)C(=O)N[C@@H](CCCNC(=N)N)C(=O)N[C@@H](CCCNC(=N)N)C(=O)N[C@@H](Cc1ccc(O)cc1)C(=O)N2` (HELM PEPTIDE1{T.C.R.S.S.G.R.Y.C.A.S.P.Y.D.R.R.R.R.Y.C.R.R.I.T.D.A.C.V}$PEPTIDE1,PEPTIDE1,2:R3-27:R3|PEPTIDE1,PEPTIDE1,9:R3-20:R3$$$V2.0), for which the figures for the IC50 in experiment [1] and in experiment [2] were 35 nM and 8760 nM, respectively.

As for `CC(C)[C@H](NC(=O)[C@@H]1CSSC[C@H](NC(=O)[C@H](Cc2ccc(O)cc2)NC(=O)[C@H](CCCNC(=N)N)NC(=O)[C@H](CCCNC(=N)N)NC(=O)[C@H](CCCNC(=N)N)NC(=O)[C@H](CCCNC(=N)N)NC(=O)[C@H](CC(=O)O)NC(=O)[C@H](Cc2ccc(O)cc2)NC(=O)[C@@H]2CCCN2C(=O)[C@H](CO)NC(=O)[C@H](CCCNC(=N)N)NC(=O)[C@@H]2CSSC[C@H](NC(=O)[C@@H](N)[C@@H](C)O)C(=O)N[C@@H](CCCNC(=N)N)C(=O)N[C@@H](CO)C(=O)N[C@@H](CO)C(=O)NCC(=O)N[C@@H](CCCNC(=N)N)C(=O)N[C@@H](Cc3ccc(O)cc3)C(=O)N2)C(=O)N[C@@H](CCCNC(=N)N)C(=O)N[C@@H](CCCNC(=N)N)C(=O)N[C@@H](C)C(=O)N[C@@H]([C@@H](C)O)C(=O)N[C@@H](CC(=O)O)C(=O)N[C@@H](C)C(=O)N1)C(=O)O`, the IC50 (commonly the midpoint of a concentration-inhibition curve) in experiment [1] was 16 nM; in experiment [2], 640 nM.

On to `CC[C@H](C)[C@@H]1NC(=O)[C@H](CCCNC(=N)N)NC(=O)[C@H](CCCNC(=N)N)NC(=O)[C@@H](NC(=O)[C@H](Cc2ccc(O)cc2)NC(=O)[C@H](CCCNC(=N)N)NC(=O)[C@H](CCCNC(=N)N)NC(=O)[C@H](CCCNC(=N)N)NC(=O)[C@H](CCCNC(=N)N)NC(=O)[C@H](CC(=O)O)NC(=O)[C@H](Cc2ccc(O)cc2)NC(=O)[C@@H]2CCCN2C(=O)[C@H](CO)NC(=O)[C@H](CCCNC(=N)N)NC(=O)[C@@H]2CSSC[C@H](NC(=O)[C@@H](N)[C@@H](C)O)C(=O)N[C@@H](CCCNC(=N)N)C(=O)N[C@@H](CO)C(=O)N[C@@H](CO)C(=O)NCC(=O)N[C@@H](C)C(=O)N[C@@H](Cc3ccc(O)cc3)C(=O)N2)CSSC[C@@H](C(=O)N[C@H](C(=O)O)C(C)C)NC(=O)[C@H](C)NC(=O)[C@H](CC(=O)O)NC(=O)[C@H]([C@@H](C)O)NC1=O` (HELM PEPTIDE1{T.C.R.S.S.G.A.Y.C.R.S.P.Y.D.R.R.R.R.Y.C.R.R.I.T.D.A.C.V}$PEPTIDE1,PEPTIDE1,2:R3-9:R3|PEPTIDE1,PEPTIDE1,20:R3-27:R3$$$V2.0), for which the 50% inhibitory concentration (IC50) stood at 44 nM in experiment [1] and 1470 nM in experiment [2].

For `CC[C@H](C)[C@@H]1NC(=O)[C@H](CCCNC(=N)N)NC(=O)[C@H](CCCNC(=N)N)NC(=O)[C@@H]2CSSC[C@H](NC(=O)[C@H](Cc3ccc(O)cc3)NC(=O)[C@H](CCCNC(=N)N)NC(=O)CNC(=O)[C@H](CO)NC(=O)[C@H](CO)NC(=O)[C@H](CCCNC(=N)N)NC(=O)[C@@H](NC(=O)[C@@H](N)[C@@H](C)O)CSSC[C@@H](C(=O)N[C@H](C(=O)O)C(C)C)NC(=O)[C@H](C)NC(=O)[C@H](CC(=O)O)NC(=O)[C@H]([C@@H](C)O)NC1=O)C(=O)N[C@@H](CCCNC(=N)N)C(=O)N[C@@H](CO)C(=O)N1CCC[C@H]1C(=O)N[C@@H](C)C(=O)N[C@@H](CC(=O)O)C(=O)N[C@@H](CCCNC(=N)N)C(=O)N[C@@H](CCCNC(=N)N)C(=O)N[C@@H](CCCNC(=N)N)C(=O)N[C@@H](CCCNC(=N)N)C(=O)N[C@@H](Cc1ccc(O)cc1)C(=O)N2` (HELM PEPTIDE1{T.C.R.S.S.G.R.Y.C.R.S.P.A.D.R.R.R.R.Y.C.R.R.I.T.D.A.C.V}$PEPTIDE1,PEPTIDE1,2:R3-27:R3|PEPTIDE1,PEPTIDE1,9:R3-20:R3$$$V2.0), the half-maximal inhibitory concentration (IC50) in experiment [1] worked out at 20 nM; in experiment [2], 4680 nM.

Turning to `CC[C@H](C)[C@@H]1NC(=O)[C@H](CCCNC(=N)N)NC(=O)[C@H](CCCNC(=N)N)NC(=O)[C@@H](NC(=O)[C@H](Cc2ccc(O)cc2)NC(=O)[C@H](C)NC(=O)[C@H](CCCNC(=N)N)NC(=O)[C@H](CCCNC(=N)N)NC(=O)[C@H](CCCNC(=N)N)NC(=O)[C@H](CC(=O)O)NC(=O)[C@H](Cc2ccc(O)cc2)NC(=O)[C@@H]2CCCN2C(=O)[C@H](CO)NC(=O)[C@H](CCCNC(=N)N)NC(=O)[C@@H]2CSSC[C@H](NC(=O)[C@@H](N)[C@@H](C)O)C(=O)N[C@@H](CCCNC(=N)N)C(=O)N[C@@H](CO)C(=O)N[C@@H](CO)C(=O)NCC(=O)N[C@@H](CCCNC(=N)N)C(=O)N[C@@H](Cc3ccc(O)cc3)C(=O)N2)CSSC[C@@H](C(=O)N[C@H](C(=O)O)C(C)C)NC(=O)[C@H](C)NC(=O)[C@H](CC(=O)O)NC(=O)[C@H]([C@@H](C)O)NC1=O`, the IC50 was determined as 54 nM in experiment [1] and 4520 nM in experiment [2].

As to `CC[C@H](C)[C@@H]1NC(=O)[C@H](CCCNC(=N)N)NC(=O)[C@H](CCCNC(=N)N)NC(=O)[C@@H](NC(=O)[C@H](Cc2ccc(O)cc2)NC(=O)[C@H](CCCNC(=N)N)NC(=O)[C@H](CCCNC(=N)N)NC(=O)[C@H](CCCNC(=N)N)NC(=O)[C@H](CCCNC(=N)N)NC(=O)[C@H](CC(=O)O)NC(=O)[C@H](Cc2ccc(O)cc2)NC(=O)[C@@H]2CCCN2C(=O)[C@H](CO)NC(=O)[C@H](CCCNC(=N)N)NC(=O)[C@@H]2CSSC[C@H](NC(=O)[C@@H](N)[C@@H](C)O)C(=O)N[C@@H](CCCNC(=N)N)C(=O)N[C@@H](C)C(=O)N[C@@H](CO)C(=O)NCC(=O)N[C@@H](CCCNC(=N)N)C(=O)N[C@@H](Cc3ccc(O)cc3)C(=O)N2)CSSC[C@@H](C(=O)N[C@H](C(=O)O)C(C)C)NC(=O)[C@H](C)NC(=O)[C@H](CC(=O)O)NC(=O)[C@H]([C@@H](C)O)NC1=O`, the IC50 in experiment [1] was found to be 14 nM; in experiment [2], 1420 nM.

Consider `CC[C@H](C)[C@@H]1NC(=O)[C@H](CCCNC(=N)N)NC(=O)[C@H](CCCNC(=N)N)NC(=O)[C@@H]2CSSC[C@H](NC(=O)[C@H](Cc3ccc(O)cc3)NC(=O)[C@H](CCCNC(=N)N)NC(=O)CNC(=O)[C@H](CO)NC(=O)[C@H](CO)NC(=O)[C@H](CCCNC(=N)N)NC(=O)[C@@H](NC(=O)[C@@H](N)[C@@H](C)O)CSSC[C@@H](C(=O)N[C@H](C(=O)O)C(C)C)NC(=O)[C@H](C)NC(=O)[C@H](CC(=O)O)NC(=O)[C@H]([C@@H](C)O)NC1=O)C(=O)N[C@@H](CCCNC(=N)N)C(=O)N[C@@H](C)C(=O)N1CCC[C@H]1C(=O)N[C@@H](Cc1ccc(O)cc1)C(=O)N[C@@H](CC(=O)O)C(=O)N[C@@H](CCCNC(=N)N)C(=O)N[C@@H](CCCNC(=N)N)C(=O)N[C@@H](CCCNC(=N)N)C(=O)N[C@@H](CCCNC(=N)N)C(=O)N[C@@H](Cc1ccc(O)cc1)C(=O)N2` (HELM PEPTIDE1{T.C.R.S.S.G.R.Y.C.R.A.P.Y.D.R.R.R.R.Y.C.R.R.I.T.D.A.C.V}$PEPTIDE1,PEPTIDE1,2:R3-27:R3|PEPTIDE1,PEPTIDE1,9:R3-20:R3$$$V2.0), for which the figures for the IC50 in experiment [1] and in experiment [2] were 10 nM and 5600 nM, respectively.

As to `CC[C@H](C)[C@@H]1NC(=O)[C@H](CCCNC(=N)N)NC(=O)[C@H](CCCNC(=N)N)NC(=O)[C@@H]2CSSC[C@H](NC(=O)[C@H](Cc3ccc(O)cc3)NC(=O)[C@H](CCCNC(=N)N)NC(=O)[C@H](C)NC(=O)[C@H](CO)NC(=O)[C@H](CO)NC(=O)[C@H](CCCNC(=N)N)NC(=O)[C@@H](NC(=O)[C@@H](N)[C@@H](C)O)CSSC[C@@H](C(=O)N[C@H](C(=O)O)C(C)C)NC(=O)[C@H](C)NC(=O)[C@H](CC(=O)O)NC(=O)[C@H]([C@@H](C)O)NC1=O)C(=O)N[C@@H](CCCNC(=N)N)C(=O)N[C@@H](CO)C(=O)N1CCC[C@H]1C(=O)N[C@@H](Cc1ccc(O)cc1)C(=O)N[C@@H](CC(=O)O)C(=O)N[C@@H](CCCNC(=N)N)C(=O)N[C@@H](CCCNC(=N)N)C(=O)N[C@@H](CCCNC(=N)N)C(=O)N[C@@H](CCCNC(=N)N)C(=O)N[C@@H](Cc1ccc(O)cc1)C(=O)N2` (HELM PEPTIDE1{T.C.R.S.S.A.R.Y.C.R.S.P.Y.D.R.R.R.R.Y.C.R.R.I.T.D.A.C.V}$PEPTIDE1,PEPTIDE1,2:R3-27:R3|PEPTIDE1,PEPTIDE1,9:R3-20:R3$$$V2.0), the IC50 in experiment [1] came out at 17 nM; in experiment [2] it was 5720 nM.

Take `CC[C@H](C)[C@@H]1NC(=O)[C@H](CCCNC(=N)N)NC(=O)[C@H](CCCNC(=N)N)NC(=O)[C@@H]2CSSC[C@H](NC(=O)[C@H](Cc3ccc(O)cc3)NC(=O)[C@H](CCCNC(=N)N)NC(=O)CNC(=O)[C@H](CO)NC(=O)[C@H](CO)NC(=O)[C@H](CCCNC(=N)N)NC(=O)[C@@H](NC(=O)[C@@H](N)[C@@H](C)O)CSSC[C@@H](C(=O)N[C@H](C(=O)O)C(C)C)NC(=O)[C@H](C)NC(=O)[C@H](CC(=O)O)NC(=O)[C@H]([C@@H](C)O)NC1=O)C(=O)N[C@@H](CCCNC(=N)N)C(=O)N[C@@H](CO)C(=O)N1CCC[C@H]1C(=O)N[C@@H](Cc1ccc(O)cc1)C(=O)N[C@@H](CC(=O)O)C(=O)N[C@@H](CCCNC(=N)N)C(=O)N[C@@H](C)C(=O)N[C@@H](CCCNC(=N)N)C(=O)N[C@@H](CCCNC(=N)N)C(=O)N[C@@H](Cc1ccc(O)cc1)C(=O)N2`: the results for the IC50 in experiment [1] and in experiment [2] were 83 nM and over 10000 nM, respectively.
